Test results reported in patent US11149277B2, “Method of producing enriched exosomes” (National Health Research Institutes, priority 2016, dated 2021).

Tests used:
[1] = test system: NAMECs; assay: Western blot of exosome markers and proteins in CM-P4 fractions of NAMECs; assay type: cell-based, human
From the text: (§1) FIG. 2 includes graphs and blots showing analyses of GW-treated NAMEC P4 fractions. CM-P4 GW-treated NAMECs were collected and subjected to (A) NanoSight Nanoparticle Tracking Analysis (NTA) and (B) Dynamic Light Scattering/Zeta Potential Analysis (DLS). […] D: particle diameter. RN: relative number. (C) is a blot showing the amounts of the CD44 stem cell marker and the CD81, CD9, TSG101, Alix, HSP70 and GAPDH exosome markers measured in the indicated CM-P4 fractions and cell lysates. The culture media and cell lysates were collected from the same number of NAMECs treated with vehicle (Crl), GW627368X (GW) or PGE2 (1 μM) for 4 days. (D) is a blot showing the amounts of the GAPDH and CD81 exosome markers and the CD44 stem cell marker measured in the CM-P4 fraction of NAMECs (CD44hi/CD24− stem cells) or CD44lo/CD24+ non-stem cells (HMLE cells) treated with vehicle (Crl) or GW for 2 days. 1×: P4 exosome fraction released by 1×10^6 cells; 2×: P4 exosome fraction released by 2×10^6 cells. […] (E) is a blot showing that the CD44 stem cell marker and GAPDH and CD81 exosome markers were measured in the indicated P4 conditioned medium fractions of NAMECs treated with vehicle (Crl), GW627368X (GW, 1 μg/ml), AH23848 (EP4 antagonist; 0.4, 2, 4 μg/ml), or AH6809 (EP1/2/3 antagonist; 0.8, 4, 8 μg/ml). (F) is a blot showing the HSP70, GAPDH and CD81 exosome markers measured in the indicated CM-P4 of NAMECs, NAMEC-shEP4-1 cells, and NAMEC-shEP4-2 cells treated with vehicle or with doxycycline (Dox, 2 μg/ml) (top panel). Doxyclycline (Dox) induced the production EP4 shRNA in NAMEC-shEP4 cells (bottom panel).
The P4 exosome fractions and cell lysates were collected from NAMECs treated with vehicle (Crl), GW627368X (GW), or PGE2 for 4 days. 1×: P4 exosome fraction released by 2.5×10^5 cells; 5×: P4 exosome fraction released by 12.5×10^5 cells. Hg: Hg-integrin β1, Lg: Lg-integrin β1, H: H-integrin α6, L: L-integrin α6, pg: pg-LRP6, g: g-LRP6, Ng: Ng-LRP6.
(§2) The isolated human mammary epithelial stem cells (NAMECs) were cultured in mammary epithelial cell basal medium (250 ml MCDB-170, 250 ml DMEM-F12, 1.2 g sodium bicarbonate, 2.5 μg EGF, 0.25 mg Hydrocortisone, 2.5 mg insulin, 35 mg BPE) with or without containing EP4 antagonist, i.e., GW627368X (GW) at 1 μg/ml, or AH23848 (AH) at 4 μg/ml, for 4 days. The culture medium was supplied with 0.5 μg/ml of GW or 2 μg/ml of AH23848 at the third day of the culturing period. For the induction of EP4 antagonist-induced exosomes from mouse mammary epithelial cells, cells were cultured in a medium containing 10 μg/ml of GW for 4 days.
The culture media were centrifuged at 300 g for 5 min to remove cells (P1), at 2,000 g for 20 min (P2), then at 10,000 g for 30 min (P3) all at 4° C. Dead cells and cell debris were removed at 300 g (P1) and 1200 g (P2). […]

[2] = test system: NAMECs; assay: NanoSight Nanoparticle Tracking Analysis of CM-P4 fractions of NAMEC culture; assay type: cell-based, human
From the text: FIG. 1 includes a TEM image and a graph. (A) is a TEM image of the P4 medium fraction of NAMECs treated with GW627368X (GW) for 4 days. Scale bar, 1 μm. (B) is a graph showing the number of particles in the CM-P4 fractions of NAMEC culture counted by using NanoSight Nanoparticle Tracking analysis. Top panel: Quantification of exosome release is shown as the ratio of [P4 GAPDH marker level]/[cell number]. Data are means±SEM (n=3). *P≤0.05. **P≤0.005. Bottom table: Quantification of exosome release is shown as the number of particles of the CM-P4 fractions released per cell measured by nanoparticle tracking analysis.
as §2
The culture media were centrifuged at 300 g for 5 min to remove cells (P1), at 2,000 g for 20 min (P2), then at 10,000 g for 30 min (P3) all at 4° C. Dead cells and cell debris were removed at 300 g (P1) and 1200 g (P2). Finally, exosomes (P4) were separated from the supernatant by centrifugation at 110,000 g for 60 min. The P4 exosome pellet was washed once in PBS and then re-suspended in PBS for further application.

[3] = test system: HMLE cells; assay: Exosome markers in CM-P4 fraction of non-stem HMLE cells; assay type: cell-based; conditions: 2 days treatment
From the text: as §1, with “(F) is a blot showing the HSP70, GAPDH and CD81 exosome markers measured in the indicated CM-P4 of NAMECs, NAMEC-shEP4-1 cells, and NAMEC-shEP4-2 cells treated with vehicle or with doxycycline (Dox, 2 μg/ml) (top panel). Doxyclycline (Dox) induced the production EP4 shRNA in NAMEC-shEP4 cells (bottom panel).” left out

[4] = test system: NAMEC-R cells; assay: NTA of EV release from Ras-transformed NAMEC-R cells; assay type: cell-based; conditions: CM-P4, 4 days; GW 1 μg/ml; SQ 120 and 240 nM
Protocol: Vesicles in the P4 fractions were counted using NTA. Data are means±SEM (n=6). ***P≤0.001; (B) The Alix, TSG101, CD63, CD81 and GAPDH exosome markers were measured in the CM-P4 fractions of NAMEC-R cells treated with vehicle (Crl), GW627368X (GW, 1 μg/ml), SQ 29,548 (SQ120/SQ240; 120 nM and 240 nM); (C) The mesenchymal marker N-cadherin, CSC markers and exosome markers were analyzed in the conditioned medium P4 fraction derived from equal numbers of vehicle-treated NAMEC-R cells (Crl), GW-treated NAMEC-R cells (GW, 1 μg/ml GW627368X for 4 days) and SQ 29,548-treated NAMEC-R cells (SQ120/SQ240; 120 nM and 240 nM for 4 days). The longer GAPDH(L) and CD81(L) exposures show the low, but detectable, presence of GAPDH and CD81 in the conditioned medium P4 fraction of vehicle-treated NAMEC-R cells.
We further investigated whether EP4 antagonism and TP receptor antagonism (as GW has partial affinity to the human TP receptor) affected EV release from transformed mammary epithelial stem cells. Four-day conditioned media of vehicle, GW-, or SQ (a TP antagonist)-treated Ras-transformed NAMEC mammary stem cells (NAMEC-R) were collected and subjected to differential ultracentrifugation to isolate EVs released by the cells. The numbers of vesicles in CM-P4 fractions were determined using NTA (FIG. 20, A). EP4 antagonism elicited release of ˜5000 vesicles per NAMEC-R cell. […]

CCOc1c2c(c(OCC)c3ccccc13)C(=O)N(c1ccc(CC(=O)NS(=O)(=O)c3ccccc3)cc1)C2 [GW627368X]
amount of total exosomal proteins released vs vehicle or PGE2 ([1]; 4 days treatment): much greater | exosome release by exosome markers in CM-P4 fractions ([1]; AH23848 0.4, 2, 4 μg/ml, AH6809 0.8, 4, 8 μg/ml, GW 1 μg/ml): Large amounts | concentration of released membrane vesicles ([2]; CM-P4 fraction, 4 days, PGE2 1 μM): ~5.4×10^4 particle/cell | release of membrane vesicles compared to untreated and PGE2-treated NAMECs ([2]; particle numbers in CM-P4): significantly triggered the release of membrane vesicles | exosome release from non-stem HMLE cells (CD81, CD44, GAPDH) [3]: did not increase exosome release | vesicles released per cell [4]: ~5000 vesicles per cell
